Patent publication US20230086703A1, “N-(4-(5-chloropyridin-3-yl)phenyl)-2-(2-(cyclopropanesulfonamido)pyrimidin-4-yl) butanamide derivatives and related compounds as human CTPS1 inhibitors for the treatment of proliferative diseases” (Step Pharma S.A.S., priority 2019, published 2023)

Molecular target: T1, human CTPS1 (Homo sapiens, UniProt P17812)
T1 construct: FLAG (with GG linker); His8 (with GG linker); purchased Proteros biostructures GmbH
T1 sequence (P17812 1-591): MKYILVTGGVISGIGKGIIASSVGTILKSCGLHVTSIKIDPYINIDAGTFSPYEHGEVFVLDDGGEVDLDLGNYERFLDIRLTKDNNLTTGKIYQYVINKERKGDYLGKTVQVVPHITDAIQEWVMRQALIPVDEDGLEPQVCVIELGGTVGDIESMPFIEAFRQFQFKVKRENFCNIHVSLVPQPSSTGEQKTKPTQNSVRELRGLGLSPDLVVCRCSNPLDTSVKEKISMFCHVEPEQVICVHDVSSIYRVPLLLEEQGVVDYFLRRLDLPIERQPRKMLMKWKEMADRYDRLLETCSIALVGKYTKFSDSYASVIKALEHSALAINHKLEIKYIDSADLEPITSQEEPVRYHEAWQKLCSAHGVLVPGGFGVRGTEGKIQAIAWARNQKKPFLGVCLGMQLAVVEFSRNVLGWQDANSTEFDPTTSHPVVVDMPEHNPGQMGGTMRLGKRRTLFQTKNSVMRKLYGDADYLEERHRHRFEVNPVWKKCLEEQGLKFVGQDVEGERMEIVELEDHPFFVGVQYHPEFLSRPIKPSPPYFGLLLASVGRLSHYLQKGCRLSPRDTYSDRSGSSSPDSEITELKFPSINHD
Test: Human CTPS1 enzyme inhibition, ADP-Glo Max assay
Type: biochemical
Conditions: ADP-Glo Max assay; Table 10; read-out: Human CTPS1 Enzyme Inhibition, IC50 grouped by potency range (CTPS1)
Summary of the method: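 Read-out is ADP-Glo Max luminescence: residual ATP depleted (60 min), then produced ADP converted back to ATP for luciferase detection (60 min). Beforehand, protein and compound were mixed for 10 min at 25 °C in Tris buffer pH 8.0 with MgCl2, Tween-20 and 2 mM L-cysteine. Results expressed as percentage inhibition per concentration.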

IC50	Structure (SMILES)
1000 to 10000 nM	COc1nccc(C)c1-c1ccc(NC(=O)C(C)(C)c2csc(NS(=O)(=O)C3CC3)n2)cc1 [T250, 2-(2-(cyclopropanesulfonamido)thiazol-4-yl)-N-(4-(2-methoxy-4-methylpyridin-3-yl)phenyl)-2-methylpropanamide]
1000 to 10000 nM	COc1ncc(-c2ccc(NC(=O)C(C)(C)c3csc(NS(=O)(=O)C4CC4)n3)cc2)cc1C [T251, 2-(2-(cyclopropanesulfonamido)thiazol-4-yl)-N-(4-(6-methoxy-5-methylpyridin-3-yl)phenyl)-2-methylpropanamide]
< 100 nM	CC(C)(C(=O)Nc1ccc(-c2cncc(Cl)c2)cc1)c1csc(NS(=O)(=O)C2CC2)n1 [T252, N-(4-(5-chloropyridin-3-yl)phenyl)-2-(2-(cyclopropanesulfonamido)thiazol-4-yl)-2-methylpropanamide]
< 100 nM	CC(C)(C(=O)Nc1ccc(-c2cncc(F)c2)cc1)c1csc(NS(=O)(=O)C2CC2)n1 [T253, 2-(2-(cyclopropanesulfonamido)thiazol-4-yl)-N-(4-(5-fluoropyridin-3-yl)phenyl)-2-methylpropanamide]
100 to 1000 nM	Cc1ccncc1-c1ccc(NC(=O)C(C)(C)c2csc(NS(=O)(=O)C3CC3)n2)cc1 [T254, 2-(2-(cyclopropanesulfonamido)thiazol-4-yl)-2-methyl-N-(4-(4-methylpyridin-3-yl)phenyl)propanamide]
1000 to 10000 nM	CC(C)(C(=O)Nc1ccc(-c2cnccc2C(F)(F)F)cc1)c1csc(NS(=O)(=O)C2CC2)n1 [T255, 2-(2-(cyclopropanesulfonamido)thiazol-4-yl)-2-methyl-N-(4-(4-(trifluoromethyl)pyridin-3-yl)phenyl)propanamide]
< 100 nM	COc1cc(-c2cncc(Cl)c2)ccc1NC(=O)C(C)(C)c1csc(NS(=O)(=O)C2CC2)n1 [T256, N-(4-(5-chloropyridin-3-yl)-2-methoxyphenyl)-2-(2-(cyclopropanesulfonamido)thiazol-4-yl)-2-methylpropanamide]
100 to 1000 nM	CN(C)c1cncc(-c2ccc(NC(=O)C(C)(C)c3csc(NS(=O)(=O)C4CC4)n3)cc2)c1 [T257, 2-(2-(cyclopropanesulfonamido)thiazol-4-yl)-N-(4-(5-(dimethylamino)pyridin-3-yl)phenyl)-2-methylpropanamide]
100 to 1000 nM	COc1cc(-c2cncc(C)c2)ccc1NC(=O)C(C)(C)c1csc(NS(=O)(=O)C2CC2)n1 [T258, 2-(2-(cyclopropanesulfonamido)thiazol-4-yl)-N-(2-methoxy-4-(5-methylpyridin-3-yl)phenyl)-2-methylpropanamide]
< 100 nM	COc1cc(-c2cncc(C(F)(F)F)c2)ccc1NC(=O)C(C)(C)c1csc(NS(=O)(=O)C2CC2)n1 [T259, 2-(2-(cyclopropanesulfonamido)thiazol-4-yl)-N-(2-methoxy-4-(5-(trifluoromethyl)pyridin-3-yl)phenyl)-2-methylpropanamide]
1000 to 10000 nM	COc1ccc(-c2ccc(NC(=O)Cc3csc(NS(=O)(=O)C4CC4)n3)cc2)cn1 [T260, 2-(2-(cyclopropanesulfonamido)thiazol-4-yl)-N-(4-(6-methoxypyridin-3-yl)phenyl)acetamide]
< 100 nM	CC(C)(C(=O)Nc1ccc(-c2cncc(F)c2)cn1)c1csc(NS(=O)(=O)C2CC2)n1 [T261, 2-(2-(cyclopropanesulfonamido)thiazol-4-yl)-N-(5′-fluoro-[3,3′-bipyridin]-6-yl)-2-methylpropanamide]
< 100 nM	CC(C)(C(=O)Nc1ccc(-c2cncc(Cl)n2)cn1)c1csc(NS(=O)(=O)C2CC2)n1 [T262, N-(5-(6-chloropyrazin-2-yl)pyridin-2-yl)-2-(2-(cyclopropanesulfonamido)thiazol-4-yl)-2-methylpropanamide]
1000 to 10000 nM	CC(C)(C(=O)Nc1ccc(-c2cncc(C#N)n2)cn1)c1csc(NS(=O)(=O)C2CC2)n1 [T263, N-(5-(6-cyanopyrazin-2-yl)pyridin-2-yl)-2-(2-(cyclopropanesulfonamido)thiazol-4-yl)-2-methylpropanamide]

The remaining lines, values behind:

Structure (SMILES)	IC50
CC(C)(C(=O)Nc1ncc(-c2cncc(F)c2)cc1F)c1csc(NS(=O)(=O)C2CC2)n1 [T230, 2-(2-(cyclopropanesulfonamido)thiazol-4-yl)-N-(5,5′-difluoro-[3,3′-bipyridin]-6-yl)-2-methylpropanamide]	< 100 nM
Cc1cc(Cl)cc(-c2ccc(NC(=O)C(C)(C)c3csc(NS(=O)(=O)C4CC4)n3)nc2)c1 [T231, N-(5-(3-chloro-5-methylphenyl)pyridin-2-yl)-2-(2-(cyclopropanesulfonamido)thiazol-4-yl)-2-methylpropanamide]	1000 to 10000 nM
COc1cccc(-c2ccc(NC(=O)C(C)(C)c3csc(NS(=O)(=O)C4CC4)n3)nc2)c1 [T232, 2-(2-(cyclopropanesulfonamido)thiazol-4-yl)-N-(5-(3-methoxyphenyl)pyridin-2-yl)-2-methylpropanamide]	100 to 1000 nM
COc1cc(F)cc(-c2ccc(NC(=O)C(C)(C)c3csc(NS(=O)(=O)C4CC4)n3)nc2)c1 [T233, 2-(2-(cyclopropanesulfonamido)thiazol-4-yl)-N-(5-(3-fluoro-5-methoxyphenyl)pyridin-2-yl)-2-methylpropanamide]	1000 to 10000 nM
COc1cc(OC)cc(-c2ccc(NC(=O)C(C)(C)c3csc(NS(=O)(=O)C4CC4)n3)nc2)c1 [T234, 2-(2-(cyclopropanesulfonamido)thiazol-4-yl)-N-(5-(3,5-dimethoxyphenyl)pyridin-2-yl)-2-methylpropanamide]	1000 to 10000 nM
CC(C)(C(=O)Nc1ccc(-c2cccc(C(F)(F)F)c2)cn1)c1csc(NS(=O)(=O)C2CC2)n1 [T235, 2-(2-(cyclopropanesulfonamido)thiazol-4-yl)-2-methyl-N-(5-(3-(trifluoromethyl)phenyl)pyridin-2-yl)propanamide]	100 to 1000 nM
CC(C)(C(=O)Nc1ccc(-c2cccc(OC(F)(F)F)c2)cn1)c1csc(NS(=O)(=O)C2CC2)n1 [T236, 2-(2-(cyclopropanesulfonamido)thiazol-4-yl)-2-methyl-N-(5-(3-(trifluoromethoxy)phenyl)pyridin-2-yl)propanamide]	100 to 1000 nM
CC(C)(O)c1cccc(-c2ccc(NC(=O)C(C)(C)c3csc(NS(=O)(=O)C4CC4)n3)nc2)c1 [T237, 2-(2-(cyclopropanesulfonamido)thiazol-4-yl)-N-(5-(3-(2-hydroxypropan-2-yl)phenyl)pyridin-2-yl)-2-methylpropanamide]	1000 to 10000 nM
CC(C)(C(=O)Nc1ccc(-c2cccc(N3CCOCC3)c2)cn1)c1csc(NS(=O)(=O)C2CC2)n1 [T238, 2-(2-(cyclopropanesulfonamido)thiazol-4-yl)-2-methyl-N-(5-(3-morpholinophenyl)pyridin-2-yl)propanamide]	1000 to 10000 nM
CC(C)(C(=O)Nc1ccc(-c2ccccc2)nc1)c1csc(NS(=O)(=O)C2CC2)n1 [T239, 2-(2-(cyclopropanesulfonamido)thiazol-4-yl)-2-methyl-N-(6-phenylpyridin-3-yl)propanamide]	100 to 1000 nM
CC(C)(C(=O)Nc1ccc(-c2cccnc2F)cc1)c1csc(NS(=O)(=O)C2CC2)n1 [T240, 2-(2-(cyclopropanesulfonamido)thiazol-4-yl)-N-(4-(2-fluoropyridin-3-yl)phenyl)-2-methylpropanamide]	100 to 1000 nM
CC(C)(C(=O)Nc1ccc(-c2cncc(CO)c2)cc1)c1csc(NS(=O)(=O)C2CC2)n1 [T241, 2-(2-(cyclopropanesulfonamido)thiazol-4-yl)-N-(4-(5-(hydroxymethyl)pyridin-3-yl)phenyl)-2-methylpropanamide]	100 to 1000 nM
COc1ncc(-c2ccc(NC(=O)Cc3csc(NS(=O)(=O)C4CC4)n3)cc2)cn1 [T242, 2-(2-(cyclopropanesulfonamido)thiazol-4-yl)-N-(4-(2-methoxypyrimidin-5-yl)phenyl)acetamide]	1000 to 10000 nM
CC(C)(C)c1ccc(-c2ccc(NC(=O)Cc3csc(NS(=O)(=O)C4CC4)n3)cc2)cc1 [T243, N-(4′-(tert-butyl)-[1,1′-biphenyl]-4-yl)-2-(2-(cyclopropanesulfonamido)thiazol-4-yl)acetamide]	1000 to 10000 nM
COc1ccccc1-c1ccc(NC(=O)Cc2csc(NS(=O)(=O)C3CC3)n2)cc1 [T246, 2-(2-(cyclopropanesulfonamido)thiazol-4-yl)-N-(2′-methoxy-[1,1′-biphenyl]-4-yl)acetamide]	100 to 1000 nM
O=C(Cc1csc(NS(=O)(=O)C2CC2)n1)Nc1ccc(-c2cncnc2)cc1 [T247, 2-(2-(cyclopropanesulfonamido)thiazol-4-yl)-N-(4-(pyrimidin-5-yl)phenyl)acetamide]	100 to 1000 nM
CC(C)(C(=O)Nc1ccc(-c2cccnc2C(F)(F)F)cc1)c1csc(NS(=O)(=O)C2CC2)n1 [T248, 2-(2-(cyclopropanesulfonamido)thiazol-4-yl)-2-methyl-N-(4-(2-(trifluoromethyl)pyridin-3-yl)phenyl)propanamide]	1000 to 10000 nM
Cc1cncc(-c2ccc(NC(=O)C(C)(C)c3csc(NS(=O)(=O)C4CC4)n3)nc2)c1 [T249, 2-(2-(cyclopropanesulfonamido)thiazol-4-yl)-2-methyl-N-(5′-methyl-[3,3′-bipyridin]-6-yl)propanamide]	< 100 nM
